Experimental data from patent US10294228B2, “Breathing control modulating compounds, and methods of making and using same” (NEURAD LTD., priority 2015, dated 2019).
Counter-ions that a name gives are not always drawn.

Tested on: anesthetized rats
Assay: Anesthetized rat spirometry screening assay (ventilatory activity, minute volume)
Type: in vivo
Conditions: increase in minute volume (VE); for change in vivo at 0.3 mg/kg: 0.3 mg/kg IV bolus, read-out: VE % Inc @ 0.3 mg/kg IV; for change in vivo at 3 mg/kg: 3.0 mg/kg IV bolus, read-out: VE % Inc @ 3.0 mg/kg IV
Procedure: Anesthetized rats provide a quick method of screening compounds for respiratory and cardiovascular activity.
Rats were initially anesthetized with 3% isoflurane (inhaled) and femoral artery and vein cannulas were surgically inserted. Once cannulated, the rats were transitioned to urethane anesthesia (1.5 g/kg; i.v.) and a tracheal cut-down was performed. After placing the tracheal cannula, it was connected to a pneumotachometer to record respiratory airflow from which respiratory rate (RR), tidal volume (VT), and their product minute volume (MV, also termed VE) were derived. After the surgical preparation was complete, animals were allowed to stabilize for 30 minutes while respiratory rate, tidal volume, minute volume, blood pressure and heart rate were recorded continuously. Arterial blood gases (ABG) were obtained from arterial blood collected from the femoral artery. ABG measurements were taken before and 6 minutes after vehicle and each dose of compound administered. Compounds being screened were administered via bolus injections through the venous cannula followed by a saline flush (total time of administration is approximately 30 seconds), and the animal was monitored for at least 6 minutes for changes in cardiovascular efforts. Compounds were prepared in formulations identified to ensure optimal solubility. As such, vehicle controls were matched for the formulation of each compound tested. Dosing of the compounds being screened was conducted at 0.1 and/or 0.3 mg/kg and/or 3 mg/kg The next dose was not administered until all cardiovascular and respiratory measures had returned to baseline levels. The positive control compounds used were N-[4,6-di-(n-propylamino)-[1,3,5]triazin-2-yl]-N,O-dimethyl-hydroxylamine or N-[2,6-di-(n-propylamino)-[1,3]pyrimidin-4-yl]-N,O-dimethyl-hydroxylamine (both administered at the end of each screening experiment (0.3 mg/kg dose) to validate the experiment and also to serve as a measure with which the compound being screened could be compared.
Data were analyzed by collecting cardiovascular and respiratory data in 30 second averages (BINs). Data were plotted 2 minutes before challenge and then 6 minutes after challenge.

Row | Compound | change in vivo at 0.3 mg/kg | change in vivo at 3 mg/kg
1 | CCCNc1nc(NC)c2nc(NCC(C)(C)O)nc(NC)c2n1 [Compound 94, 1-(4,8-Bis-methylamino-6-propylamino-pyrimido[5,4-d]pyrimidin-2-ylamino)-2-methyl-propan-2-ol] | 18% | 130%
2 | CCCNc1nc(NC)c2nc(NC[C@@H](C)O)nc(NC)c2n1 [Compound 115, (R)-1-(4,8-Bis-methylamino-6-propylamino-pyrimido[5,4-d]pyrimidin-2-ylamino)-propan-2-ol] | 60% | 151%
3 | CCCNc1nc(NC)nc2c(N(C)CC(C)O)nc(NC)nc12 (stereo not drawn) [Compound 73a, 1-[(2,6-Bis-methylamino-8-propylamino-pyrimido[5,4-d]-pyrimidin-4-yl)-methyl-amino]-propan-2-ol Hydrochloride] | 16% | 79%
4 | CCCNc1nc(NC)nc2c(NC[C@H](C)O)nc(NC)nc12 [Compound 12a, (S)-1-(2,6-Bis-methylamino-8-propylamino-pyrimido[5,4-d]pyrimidin-4-ylamino)-propan-2-ol hydrochloride] | 114% | –
5 | CCCNc1nc(NC)nc2c(NCCO)nc(NC)nc12 [Compound 4a, 2-(2,6-Bis-methylamino-8-propylamino-pyrimido[5,4-d]pyrimidin-4-ylamino)-ethanol hydrochloride] | 90% | –
6 | CNc1nc(NCC(C)(C)O)c2nc(NC)nc(NCc3ccccc3)c2n1 [Compound 44a, 1-(8-Benzylamino-2,6-bis-methylamino-pyrimido[5,4-d]pyrimidin-4-ylamino)-2-methyl-propan-2-ol Hydrochloride] | 122% | 132%
7 | CCCNc1nc(NC)c2nc(N(C)CC(C)O)nc(NC)c2n1 (stereo not drawn) [Compound 97, 1-[(4,8-Bis-methylamino-6-propylamino-pyrimido[5,4-d]pyrimidin-2-yl)-methyl-amino]-propan-2-ol] | 49% | 140%
8 | CCNc1nc(NCC)c2nc(NC[C@H](C)O)nc(NCC)c2n1 [Compound 165, (S)-1-(4,6,8-Tris-ethylamino-pyrimido[5,4-d]pyrimidin-2-ylamino)-propan-2-ol] | 66% | 101%
9 | C=C(C)CNc1nc(NC)c2nc(NC[C@@H](C)O)nc(NC)c2n1 [Compound 158, (R)-1-[6-(2-Methyl-allylamino)-4,8-bis-methylamino-pyrimido[5,4-d]-pyrimidin-2-ylamino]-propan-2-ol] | 68% | 120%
10 | C=C(C)CNc1nc(NCC)c2nc(NC[C@@H](C)O)nc(NCC)c2n1 [Compound 174, (R)-1-[4,8-Bis-ethylamino-6-(2-methyl-allylamino)-pyrimido[5,4-d]-pyrimidin-2-ylamino]-propan-2-ol] | 72% | 114%
11 | CNc1nc(NCC(C)(C)O)c2nc(NC)nc(NCc3ncccn3)c2n1 [Compound 38a, 1-{2,6-Bis-methylamino-8-[(pyrimidin-2-ylmethyl)-amino]-pyrimido[5,4-d]pyrimidin-4-ylamino}-2-methyl-propan-2-ol Hydrochloride] | 18% | 27%
12 | CCNc1nc(NC[C@@H](C)O)nc2c(NCC)nc(N)nc12 [Compound 171, (R)-1-(6-Amino-4,8-bis-ethylamino-pyrimido[5,4-d]-pyrimidin-2-ylamino)-propan-2-ol] | 17% | 175%
13 | C=C(C)CNc1nc(NCC)c2nc(NC[C@H](C)O)nc(NCC)c2n1 [Compound 175, (S)-1-[4,8-Bis-ethylamino-6-(2-methyl-allylamino)-pyrimido[5,4-d]-pyrimidin-2-ylamino]-propan-2-ol] | 75% | 134%
14 | CNc1nc(NCCO)c2nc(NC)nc(NC)c2n1 [Compound 52a, 2-(2,6,8-Tris-methylamino-pyrimido[5,4-d]pyrimidin-4-ylamino)-ethanol Hydrochloride] | 26% | –
15 | CCCNc1nc(NCC)c2nc(NC[C@H](C)O)nc(NCC)c2n1 [Compound 166, (S)-1-(4,8-Bis-ethylamino-6-propylamino-pyrimido[5,4-d]-pyrimidin-2-ylamino)-propan-2-ol] | 88% | 91%
16 | CNc1nc(NCc2ccccc2)c2nc(NC)nc(NCCO)c2n1 [Compound 64a, 2-(8-Benzylamino-2,6-bis-methylamino-pyrimido[5,4-d]-pyrimidin-4-ylamino)-ethanol Hydrochloride] | 32% | 157%
17 | CCCNc1nc(NCC(F)(F)F)nc2c(NCC(C)(C)O)nc(NCC(F)(F)F)nc12 [Compound 34a, 2-Methyl-1-[8-propylamino-2,6-bis-(2,2,2-trifluoro-ethylamino)-pyrimido[5,4-d]pyrimidin-4-ylamino]-propan-2-ol Hydrochloride] | 2% | –
18 | CCNc1nc(NCC(C)(C)O)c2nc(NCC)nc(NCC(F)F)c2n1 [Compound 47a, 1-[8-(2,2-difluoro-ethylamino)-2,6-bis-ethylamino-pyrimido[5,4-d]pyrimidin-4-ylamino]-2-methyl-propan-2-ol hydrochloride] | 31% | –
19 | CNc1nc(NCC(C)(C)O)nc2c(NC)nc(NCc3ncccn3)nc12 [Compound 109, 1-{4,8-Bis-methylamino-6-[(pyrimidin-2-ylmethyl)-amino]-pyrimido[5,4-d]pyrimidin-2-ylamino}-2-methyl-propan-2-ol] | 21% | 10%
20 | CCCNc1nc(NCC)nc2c(NCC(C)(C)O)nc(NCC)nc12 [Compound 32a, 1-(2,6-Bis-ethylamino-8-propylamino-pyrimido[5,4-d]-pyrimidin-4-ylamino)-2-methyl-propan-2-ol hydrochloride] | 201% | –
21 | CCCNc1nc(NC)nc2c(N[C@@H]3CCCC[C@@H]3O)nc(NC)nc12 [Compound 84, (1S,2R)-2-(2,6-Bis-methylamino-8-propylamino-pyrimido[5,4-d]pyrimidin-4-ylamino)-cyclohexanol] | 169% | 184%
22 | CNc1nc(NCC(F)(F)F)c2nc(NC)nc(NCCO)c2n1 [Compound 62a, 2-[2,6-Bis-methylamino-8-(2,2,2-trifluoro-ethylamino)-pyrimido[5,4-d]pyrimidin-4-ylamino]-ethanol Hydrochloride] | 40% | –
23 | CCCNc1nc(NC)nc2c(N(C)CCO)nc(NC)nc12 [Compound 6a, 2-[(2,6-Bis-methylamino-8-propylamino-pyrimido[5,4-d]pyrimidin-4-yl)-methyl-amino]-ethanol hydrochloride] | 37% | –
24 | CCCNc1nc(NCC)c2nc(NCCO)nc(NCC)c2n1 [Compound 162, 2-(4,8-Bis-ethylamino-6-propylamino-pyrimido[5,4-d]pyrimidin-2-ylamino)-ethanol] | 187% | 216%
25 | CNc1nc(NC[C@@H](C)O)nc2c(NC)nc(N)nc12 [Compound 151, (R)-1-(6-Amino-4,8-bis-methylamino-pyrimido[5,4-d]-pyrimidin-2-ylamino)-propan-2-ol] | 0% | 95%
